Measurements as given in US20120078529A1, “DETERMINING THE SEVERITY OF 5-FLUOROURACIL OVERDOSE” (WELLSTAT THERAPEUTICS CORPORATION, priority 2009, published 2012).
Entries after “also recorded” stand apart in the source; their conditions may differ. Read-outs that look alike come from different tables or passages of the source.

Legend:
[1] = 5-fluorouracil toxicity severity score calculation; set-up: species or system human; conditions: base ten logarithms, dose in mg, administration rate in mg/hr
Description: This invention provides a method of determining a 5-fluorouracil toxicity severity score for a patient receiving 5-fluorouracil, comprising calculating the square root of the sum of: (a) the square of the logarithm of the dose of 5-fluorouracil administered to the patient; and (b) the square of the logarithm of the administration rate of the 5-fluorouracil to the patient.
The severity score can be represented by the following equation:
Severity Score=[(log Dose)^2+(log Rate)^2]^1/2
Typically the logarithm is a base-ten logarithm (log10):
ti Severity Score=[(log10 Dose)^2+(log10 Rate)^2]^1/2
In accordance with this invention the dose and the dose rate can be expressed in any units, including all units that are conventional for expressing drug doses and dose rates. […] Whether they should receive vistonuridine should be evaluated on a case-by-case basis by the patient's physician. When units other than milligrams and mg/hr are utilized or a power relationship other than log10 is utilized in the calculation, the severity score will have a different numerical value and the skilled artisan can readily calculate the corresponding cut-offs distinguishing among lethal, seriously toxic but nonlethal, and nontoxic, doses. […]

5FU overdose [2] = conditions: cited from earlier work
[3] = cited from earlier work
5FU overdose [4] = assay: Patients overdosed with 5FU treated with vistonuridine as an antidote; format: in vivo, human
Method: Seventeen patients overdosed with 5FU have been treated with vistonuridine as an antidote. Patients received vistonuridine (10 g q6h for 20 doses) beginning 8 to 96 hours after overdose. Data from 13 patients with similar 5FU overdoses provide the time course and outcomes for patients receiving available supportive care without vistonuridine. A severity score, integrating dose and infusion rate, was calculated for all the patients, and this tool could be used by healthcare workers to determine the expected severity and outcome of a 5FU overdose.
Wellstat Therapeutics Corporation was contacted by physicians of patients who had received 5FU overdoses, most due to infusion pump errors. Emergency Investigational New Drug approvals (INDs) were obtained from the U.S. Food and Drug Administration (FDA), and vistonuridine was promptly shipped or couriered to the clinics. Patients received vistonuridine beginning 8 to 96 hours after 5FU.

lethal 5FU overdose = assay: Vistonuridine antidote after lethal 5FU overdose in mice; format: in vivo
Method: Uridine is a specific pharmacologic antidote for 5FU poisoning. It reduces 5FU toxicity when taken up prior to the onset of cell death. However uridine has poor oral bioavailability (about 7%). Vistonuridine (chemical name: 2′,3′,5′-tri-O-acetyluridine) is an oral prodrug of uridine. […] Vistonuridine is rapidly converted to circulating uridine by deacetylation (FIG. 2). It is an effective antidote against 5FU poisoning when administered up to 48 hours or more after a lethal 5FU overdose in mice, and up to 96 hours or more in humans. (See Example 1 below).

[5] = cited from earlier work; remark: listed apart in the source

For `O=c1[nH]cc(F)c(=O)[nH]1` [5FU, 5-Fluorouracil], the “Severity score that indicates a lethal dose” value [1] is given as at least 4.5, the “Outcome of the 11 literature-reported 5FU overdose cases with predicted death” value (5FU overdose [2]; 11 cases, available supportive care, no vistonuridine) is given as “die from the overdose” and the “Observed Outcome” value (5FU overdose [2]; individual 5FU overdose patient, best supportive care without vistonuridine) is given as “Death; also recorded: Recovered”. For the same molecule, the “Patients receiving 5FU who will develop a toxic reaction” value ([3]; about 275,000 US cancer patients receive 5FU annually, NIH estimate) was “about 3%” and the “Patients who die each year from 5FU overexposure” value ([3]; human, in vivo) was “more than 1300 patients”.
With `CC(=O)OC[C@H]1O[C@@H](n2ccc(=O)[nH]c2=O)[C@H](OC(C)=O)[C@@H]1OC(C)=O` [Vistonuridine, 2′,3′,5′-tri-O-acetyluridine] the “Outcome of all 17 overdose patients treated with vistonuridine” value (5FU overdose [4]; 17 patients, most with relatively modest toxicity) was “recovered fully”, the “Time after 5FU overdose at which the antidote is still effective” value (5FU overdose [4]; humans) was at least 96 h and the “Observed Outcome” value (5FU overdose [4]; individual 5FU overdose patient, vistonuridine 10 g q6 hr for 20 doses beginning 8 to 96 hours after the 5FU overdose) was “Recovered”. The “Time after lethal 5FU overdose at which the antidote is still effective” value (lethal 5FU overdose) was at least 48 h.
For `O=c1ccn([C@@H]2O[C@H](CO)[C@@H](O)[C@H]2O)c(=O)[nH]1` [uridine, Uridine], the Oral bioavailability [5] is listed as “about 7%”.
